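Cultured in 96-well plates, cells were exposed to test compound for 48 hours across five concentrations. GI50 marks 50% less growth.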 Activity calls are given as the source filed them. Rule as the data show it: active = GI50 up to about 1.1 µM and inactive = higher.
Assays:
Assay in all cases: NCI anticancer screen, dose series, 48 h
786-0 = tested on: 786-0
NCI-H522 = tested on: NCI-H522
OVCAR-8 = tested on: OVCAR-8
EKVX = tested on: EKVX
CCRF-CEM = tested on: CCRF-CEM
LOX IMVI = tested on: LOX IMVI
MOLT-4 = tested on: MOLT-4
UACC-257 = tested on: UACC-257
ACHN = tested on: ACHN
SF-539 = tested on: SF-539
OVCAR-5 = tested on: OVCAR-5
NCI-H226 = tested on: NCI-H226
SK-MEL-28 = tested on: SK-MEL-28
NCI-H460 = tested on: NCI-H460
IGROV-1 = tested on: IGROV-1
OVCAR-3 = tested on: OVCAR-3
NCI-H23 = tested on: NCI-H23
MCF7 = tested on: MCF7
NCI/ADR-RES = tested on: NCI/ADR-RES

Measured: GI50

COc1cccc(C=O)c1[O-].COc1cccc(C=O)c1[O-].[Zn+2]
inactive: 786-0 49 µM | NCI-H522 > 100 µM | OVCAR-8 43.8 µM | EKVX 61.5 µM | CCRF-CEM 28.9 µM | LOX IMVI 76.9 µM | MOLT-4 33.8 µM | UACC-257 33.9 µM | ACHN 44.1 µM | SF-539 45.2 µM | OVCAR-5 53.7 µM | NCI-H226 > 100 µM | SK-MEL-28 76.7 µM | NCI-H460 42.1 µM | IGROV-1 75.2 µM | OVCAR-3 32.8 µM | NCI-H23 79.3 µM

O=C1NC(O)n2c(=O)[nH]c(=O)n21 (centres undefined)
inactive: 786-0 > 100 µM | NCI-H522 > 100 µM | OVCAR-8 > 100 µM | EKVX > 100 µM | CCRF-CEM > 100 µM | LOX IMVI > 100 µM | MOLT-4 > 100 µM | UACC-257 > 100 µM | ACHN > 100 µM | SF-539 > 100 µM | OVCAR-5 > 100 µM | NCI-H226 > 100 µM | SK-MEL-28 > 100 µM | NCI-H460 > 100 µM | IGROV-1 > 100 µM | OVCAR-3 > 100 µM | NCI-H23 > 100 µM

CCOC(=O)C(C[Si](C)(C)C)P(=O)(OCC)OCC (centres undefined)
inactive: 786-0 > 100 µM | NCI-H522 > 100 µM | OVCAR-8 > 100 µM | CCRF-CEM > 100 µM | LOX IMVI > 100 µM | MOLT-4 > 100 µM | UACC-257 > 100 µM | ACHN > 100 µM | SF-539 > 100 µM | OVCAR-5 > 100 µM | NCI-H226 > 100 µM | SK-MEL-28 > 100 µM | NCI-H460 > 100 µM | IGROV-1 > 100 µM | OVCAR-3 > 100 µM | NCI-H23 > 100 µM

CCOC1C(Br)Cn2c(=O)c3cc4ccccc4cc3c(=O)n2C1C (centres undefined)
inactive: 786-0 > 100 µM | NCI-H522 1.67 µM | OVCAR-8 > 100 µM | EKVX 47.6 µM | CCRF-CEM 50.1 µM | LOX IMVI 73.5 µM | MOLT-4 29.4 µM | UACC-257 60.4 µM | ACHN > 100 µM | SF-539 > 100 µM | OVCAR-5 > 100 µM | NCI-H226 > 100 µM | SK-MEL-28 > 100 µM | NCI-H460 40.3 µM | IGROV-1 > 100 µM | OVCAR-3 > 100 µM | NCI-H23 > 100 µM

O=C1CCCCC1C1(O)C(=O)Nc2cc(F)ccc21 (centres undefined)
inactive: 786-0 > 100 µM | NCI-H522 > 100 µM | OVCAR-8 > 100 µM | EKVX > 100 µM | CCRF-CEM > 100 µM | LOX IMVI > 100 µM | MOLT-4 > 100 µM | UACC-257 > 100 µM | ACHN > 100 µM | SF-539 > 100 µM | OVCAR-5 > 100 µM | NCI-H226 > 100 µM | SK-MEL-28 > 100 µM | NCI-H460 > 100 µM | IGROV-1 > 100 µM | NCI-H23 > 100 µM

CCOC(=O)/C=C/c1ccccn1
inactive: 786-0 > 100 µM | NCI-H522 > 100 µM | OVCAR-8 > 100 µM | EKVX > 100 µM | CCRF-CEM > 100 µM | LOX IMVI > 100 µM | MOLT-4 > 100 µM | UACC-257 > 100 µM | ACHN > 100 µM | SF-539 > 100 µM | OVCAR-5 > 100 µM | NCI-H226 > 100 µM | SK-MEL-28 > 100 µM | NCI-H460 > 100 µM | IGROV-1 > 100 µM | NCI-H23 > 100 µM

COc1ccc2c(c1)CCc1cnn(C3OC(COC(C)=O)C(OC(C)=O)C(OC(C)=O)C3OC(C)=O)c1-2 (centres undefined)
inactive: 786-0 28.2 µM | NCI-H522 17 µM | OVCAR-8 > 100 µM | EKVX 49 µM | CCRF-CEM 15 µM | LOX IMVI > 100 µM | MOLT-4 29.2 µM | UACC-257 > 100 µM | ACHN > 100 µM | SF-539 > 100 µM | OVCAR-5 > 100 µM | NCI-H226 79.6 µM | SK-MEL-28 41.1 µM | NCI-H460 > 100 µM | OVCAR-3 23.9 µM | NCI-H23 69 µM

CC(=O)OCC(OC(C)=O)C(OC(C)=O)C(OC(C)=O)C(=O)CNn1c(-c2ccccc2)nc2ccc(Br)cc2c1=O (centres undefined)
inactive: 786-0 > 100 µM | NCI-H522 46.8 µM | OVCAR-8 > 100 µM | EKVX > 100 µM | CCRF-CEM > 100 µM | LOX IMVI > 100 µM | MOLT-4 93.3 µM | UACC-257 > 100 µM | ACHN > 100 µM | SF-539 > 100 µM | OVCAR-5 > 100 µM | NCI-H226 > 100 µM | SK-MEL-28 > 100 µM | NCI-H460 > 100 µM | OVCAR-3 > 100 µM | NCI-H23 > 100 µM

CC(=O)N(N=O)c1ccc(N(N=O)C(C)=O)cc1
inactive: 786-0 > 100 µM | NCI-H522 > 100 µM | OVCAR-8 > 100 µM | CCRF-CEM > 100 µM | LOX IMVI > 100 µM | MOLT-4 > 100 µM | ACHN > 100 µM | SF-539 > 100 µM | OVCAR-5 > 100 µM | NCI-H226 > 100 µM | SK-MEL-28 > 100 µM | NCI-H460 > 100 µM | IGROV-1 > 100 µM | OVCAR-3 > 100 µM | NCI-H23 > 100 µM

O=C1CCCc2c(O)ccc(O)c21
inactive: 786-0 > 100 µM | NCI-H522 12.6 µM | OVCAR-8 > 100 µM | EKVX 85.7 µM | CCRF-CEM 19.1 µM | LOX IMVI > 100 µM | MOLT-4 27.9 µM | UACC-257 > 100 µM | ACHN > 100 µM | SF-539 > 100 µM | OVCAR-5 > 100 µM | NCI-H226 > 100 µM | SK-MEL-28 > 100 µM | NCI-H460 > 100 µM | IGROV-1 > 100 µM | OVCAR-3 > 100 µM | NCI-H23 > 100 µM

COC(=O)c1c2c(c(-c3ccccc3)c3c1-c1nc(Cl)ccc1CC3)CCc1ccc(Cl)nc1-2
inactive: 786-0 > 100 µM | NCI-H522 77.1 µM | OVCAR-8 65.2 µM | EKVX 61.4 µM | CCRF-CEM > 100 µM | LOX IMVI > 100 µM | MOLT-4 > 100 µM | UACC-257 > 100 µM | ACHN > 100 µM | SF-539 45.5 µM | OVCAR-5 > 100 µM | NCI-H226 52.6 µM | SK-MEL-28 > 100 µM | NCI-H460 70.6 µM | IGROV-1 > 100 µM | OVCAR-3 > 100 µM | NCI-H23 > 100 µM

O=C(NCCCCCCCCCCCCNC(=O)c1cnc2ccccc2n1)c1cnc2ccccc2n1
inactive: 786-0 31.7 µM | NCI-H522 19 µM | OVCAR-8 9.4 µM | EKVX > 100 µM | CCRF-CEM > 100 µM | LOX IMVI 39.8 µM | MOLT-4 > 100 µM | UACC-257 47.8 µM | ACHN 44.3 µM | SF-539 15.1 µM | NCI-H226 48 µM | SK-MEL-28 > 100 µM | NCI-H460 48.1 µM | IGROV-1 54.3 µM | OVCAR-3 34.7 µM

CCOC(=O)N(NC(=O)NC(C)C)c1ccccc1
inactive: 786-0 > 100 µM | OVCAR-8 > 100 µM | EKVX > 100 µM | CCRF-CEM > 100 µM | LOX IMVI > 100 µM | MOLT-4 > 100 µM | MCF7 > 100 µM | UACC-257 > 100 µM | ACHN > 100 µM | SF-539 > 100 µM | OVCAR-5 > 100 µM | NCI-H226 > 100 µM | SK-MEL-28 > 100 µM | NCI-H460 > 100 µM | IGROV-1 > 100 µM | OVCAR-3 > 100 µM | NCI-H23 > 100 µM | NCI/ADR-RES > 100 µM

COc1cc2cc3c4c(cc(OC)c(OC)c4c2cc1OC)CCN3C(=O)OCCN1CCNCC1
inactive: 786-0 11.6 µM | NCI-H522 16.6 µM | OVCAR-8 15.9 µM | EKVX 15.1 µM | CCRF-CEM 18.4 µM | LOX IMVI 13.7 µM | MOLT-4 16.1 µM | UACC-257 14.9 µM | ACHN 15.1 µM | SF-539 15.1 µM | OVCAR-5 18 µM | NCI-H226 14.4 µM | SK-MEL-28 18.5 µM | NCI-H460 13.5 µM | IGROV-1 17.3 µM | OVCAR-3 15.3 µM | NCI-H23 17.4 µM

O=C1CC(S(=O)(=O)O)C=C1Nc1cccc(Cl)c1 (centres undefined)
inactive: 786-0 > 100 µM | NCI-H522 > 100 µM | OVCAR-8 > 100 µM | EKVX > 100 µM | CCRF-CEM > 100 µM | LOX IMVI > 100 µM | MOLT-4 > 100 µM | UACC-257 > 100 µM | ACHN > 100 µM | SF-539 > 100 µM | OVCAR-5 > 100 µM | NCI-H226 > 100 µM | SK-MEL-28 > 100 µM | NCI-H460 > 100 µM | IGROV-1 > 100 µM | OVCAR-3 > 100 µM | NCI-H23 > 100 µM

CN(N=O)C(=O)ON1C(=O)CCC1=O
inactive: 786-0 > 100 µM | NCI-H522 > 100 µM | OVCAR-8 > 100 µM | EKVX > 100 µM | CCRF-CEM > 100 µM | LOX IMVI > 100 µM | MOLT-4 > 100 µM | UACC-257 > 100 µM | ACHN > 100 µM | SF-539 > 100 µM | OVCAR-5 > 100 µM | NCI-H226 > 100 µM | SK-MEL-28 > 100 µM | NCI-H460 47.8 µM | IGROV-1 > 100 µM | OVCAR-3 > 100 µM | NCI-H23 > 100 µM
